Source: US10479795B2 (Incyte Corporation, priority 2016, dated 2019)
Counter-ions that a name gives are not always drawn. Like-named read-outs stand apart in the source and are kept apart here.

Key:
[1] = molecular target: PI3Kδ (p110δ/p85α) Recombinant Human Protein (Homo sapiens (Human), UniProt O00329); test: PI3Kδ Scintillation Proximity Assay; assay type: biochemical
Procedure, shortened: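 IC50 was fitted to percent solvent-control activity from SPA scintillation counts after WGA bead capture of 33P-labelled lipid product. Reaction: 120 min, room temperature, 3.4 nM p110δ/p85α, 20 μM PIP2, 2 μM ATP with tracer, MOPS pH 6.7 buffer containing MgCl2, DTT, CHAPS, 2% DMSO.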

[2] = molecular target: PI3Kγ (p110γ) Recombinant Human Protein (Homo sapiens (Human), UniProt P48736); test: PI3K-γ Scintillation Proximity Assay; assay type: biochemical; conditions: read-out: PI3Kγ IC50
Procedure, shortened: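 Radiometric SPA readout: […] bound to WGA beads after overnight shaking, IC50 derived from % activity of DMSO control. Reaction used human p110γ, 2 μM ATP, 20 μM PIP2, pH 6.7 MOPS buffer with MgCl2, DTT, CHAPS, 2% DMSO, room temperature.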

[3] = system: Phosphorylated Ribosomal Protein S6 (RPS6); test: THP-1 RPS6 ELISA Assay; assay type: cell-based, Human; conditions: THP-1 cells, read-out: PI3Kγ_THP1_RPS6_ELISA IC50
Procedure, shortened: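 IC50 values come from a curve of percent inhibition against log compound concentration, using phospho-RPS6 ELISA (450 nm) on THP-1 lysates. Cells were serum-starved overnight, exposed to compound for 2 h at 37 °C, then challenged 15 min with 10 nM MCP-1.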

Chain of PI3Kδ (p110δ/p85α) Recombinant Human Protein (O00329 whole entry): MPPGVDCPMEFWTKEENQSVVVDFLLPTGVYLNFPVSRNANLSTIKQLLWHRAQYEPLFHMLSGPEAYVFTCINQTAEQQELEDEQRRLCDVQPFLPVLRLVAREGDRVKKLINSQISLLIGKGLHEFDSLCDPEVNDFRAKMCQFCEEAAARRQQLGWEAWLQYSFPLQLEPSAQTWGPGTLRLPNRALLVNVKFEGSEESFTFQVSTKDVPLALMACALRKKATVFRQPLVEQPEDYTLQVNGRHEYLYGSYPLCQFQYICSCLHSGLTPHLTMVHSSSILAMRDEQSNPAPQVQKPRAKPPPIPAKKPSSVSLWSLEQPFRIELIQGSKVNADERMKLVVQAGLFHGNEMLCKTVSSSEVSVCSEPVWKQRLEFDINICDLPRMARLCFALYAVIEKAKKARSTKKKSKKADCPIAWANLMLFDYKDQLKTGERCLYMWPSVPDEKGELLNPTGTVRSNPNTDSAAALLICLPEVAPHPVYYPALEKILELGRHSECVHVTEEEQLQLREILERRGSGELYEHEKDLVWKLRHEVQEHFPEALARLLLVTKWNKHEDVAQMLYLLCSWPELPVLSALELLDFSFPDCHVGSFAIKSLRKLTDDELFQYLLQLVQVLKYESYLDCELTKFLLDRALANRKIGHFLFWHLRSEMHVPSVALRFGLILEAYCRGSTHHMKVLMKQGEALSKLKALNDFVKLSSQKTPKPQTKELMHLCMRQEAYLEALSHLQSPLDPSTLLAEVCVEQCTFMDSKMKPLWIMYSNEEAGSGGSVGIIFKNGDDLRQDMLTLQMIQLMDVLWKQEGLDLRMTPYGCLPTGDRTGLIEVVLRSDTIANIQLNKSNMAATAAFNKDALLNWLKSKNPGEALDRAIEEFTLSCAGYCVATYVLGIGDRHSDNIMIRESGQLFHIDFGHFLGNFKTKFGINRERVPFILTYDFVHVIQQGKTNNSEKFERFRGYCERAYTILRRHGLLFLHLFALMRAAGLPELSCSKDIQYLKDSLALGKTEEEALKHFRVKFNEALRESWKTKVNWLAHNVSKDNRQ
Chain of PI3Kδ (p110δ/p85α) Recombinant Human Protein (P27986 whole entry partner): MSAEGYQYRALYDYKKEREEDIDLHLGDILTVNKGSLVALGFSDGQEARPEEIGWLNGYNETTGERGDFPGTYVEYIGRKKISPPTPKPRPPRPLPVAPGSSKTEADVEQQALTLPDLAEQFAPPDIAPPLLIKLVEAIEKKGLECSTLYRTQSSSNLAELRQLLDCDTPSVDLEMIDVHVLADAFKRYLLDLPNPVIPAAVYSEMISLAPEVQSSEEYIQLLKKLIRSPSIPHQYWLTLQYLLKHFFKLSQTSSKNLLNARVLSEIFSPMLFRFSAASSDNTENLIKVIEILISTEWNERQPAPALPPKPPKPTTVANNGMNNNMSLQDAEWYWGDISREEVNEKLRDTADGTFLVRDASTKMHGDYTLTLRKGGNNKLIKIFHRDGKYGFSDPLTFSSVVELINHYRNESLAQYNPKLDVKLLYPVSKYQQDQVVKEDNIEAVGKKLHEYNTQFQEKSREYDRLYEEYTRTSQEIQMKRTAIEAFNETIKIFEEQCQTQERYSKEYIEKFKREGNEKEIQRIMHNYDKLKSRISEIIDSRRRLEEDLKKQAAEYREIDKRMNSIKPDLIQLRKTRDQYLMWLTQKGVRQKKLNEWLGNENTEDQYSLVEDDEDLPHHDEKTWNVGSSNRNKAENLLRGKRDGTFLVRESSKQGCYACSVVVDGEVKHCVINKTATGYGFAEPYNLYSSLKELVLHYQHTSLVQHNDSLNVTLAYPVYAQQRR
Chain of PI3Kγ (p110γ) Recombinant Human Protein (P48736 whole entry): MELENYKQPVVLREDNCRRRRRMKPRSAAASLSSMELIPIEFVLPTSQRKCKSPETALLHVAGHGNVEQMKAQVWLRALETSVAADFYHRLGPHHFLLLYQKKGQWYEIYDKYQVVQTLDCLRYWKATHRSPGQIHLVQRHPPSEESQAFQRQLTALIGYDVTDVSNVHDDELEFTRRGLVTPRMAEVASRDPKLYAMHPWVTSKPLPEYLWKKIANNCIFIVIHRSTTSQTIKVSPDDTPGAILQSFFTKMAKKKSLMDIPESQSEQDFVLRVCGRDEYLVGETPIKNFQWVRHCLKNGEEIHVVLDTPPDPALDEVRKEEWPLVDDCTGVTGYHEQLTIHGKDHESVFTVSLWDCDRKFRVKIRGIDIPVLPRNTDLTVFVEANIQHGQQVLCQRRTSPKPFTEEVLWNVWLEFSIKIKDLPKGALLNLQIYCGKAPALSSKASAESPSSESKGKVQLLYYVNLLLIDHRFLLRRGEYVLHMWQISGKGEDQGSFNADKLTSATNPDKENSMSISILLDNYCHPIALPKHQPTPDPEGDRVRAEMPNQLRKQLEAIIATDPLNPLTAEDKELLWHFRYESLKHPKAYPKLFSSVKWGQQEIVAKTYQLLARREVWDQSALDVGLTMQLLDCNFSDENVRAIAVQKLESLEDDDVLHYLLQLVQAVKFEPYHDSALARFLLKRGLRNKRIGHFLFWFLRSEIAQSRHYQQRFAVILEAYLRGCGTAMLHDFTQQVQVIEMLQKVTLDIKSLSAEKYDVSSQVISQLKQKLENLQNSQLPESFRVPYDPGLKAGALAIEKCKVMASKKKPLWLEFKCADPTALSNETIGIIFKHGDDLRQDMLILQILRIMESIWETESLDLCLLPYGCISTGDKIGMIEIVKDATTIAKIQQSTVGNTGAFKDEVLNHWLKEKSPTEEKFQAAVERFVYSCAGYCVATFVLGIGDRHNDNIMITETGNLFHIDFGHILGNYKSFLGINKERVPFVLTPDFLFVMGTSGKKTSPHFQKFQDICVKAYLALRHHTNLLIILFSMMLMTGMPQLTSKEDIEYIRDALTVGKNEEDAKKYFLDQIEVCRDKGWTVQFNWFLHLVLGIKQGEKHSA

IC50 [1] | IC50 [2] | IC50 ([3]; Homo sapiens) | IC50 [3] | SMILES
500 to 2000 nM | 100 to 500 nM | > 1000 nM |  | Cc1ccc(S(=O)(=O)N2CC(F)C2)cc1-c1cnc2c(N)ncnn12 [Example 131, 7-(5-((3-fluoroazetidin-1-yl)sulfonyl)-2-methylphenyl)imidazo[2,1-f][1,2,4]triazin-4-amine]
100 to 500 nM | < 100 nM |  | < 100 nM | Cc1ccc(S(=O)(=O)NC23CC(Cn4ccnc4)(C2)C3)cc1-c1cnc2c(N)nc(C(F)(F)F)nn12 [Example 324, N-(3-((1H-Imidazol-1-yl)methyl)bicyclo[1.1.1]pentan-1-yl)-3-(4-amino-2-(trifluoromethyl)imidazo[1,2-f][1,2,4]triazin-7-yl)-4-methylbenzenesulfonamide trifluoroacetate salt]
< 100 nM | < 100 nM | < 100 nM |  | CCc1cn2c(-c3cc(S(=O)(=O)N[C@H]4CC[C@H](O)CC4)ccc3C)cnc2c(N)n1 [Example 38, 3-(8-Amino-6-ethylimidazo[1,2-a]pyrazin-3-yl)-N-(trans-4-hydroxycyclohexyl)-4-methylbenzenesulfonamide]
100 to 500 nM | < 100 nM | 100 to 500 nM |  | Cc1ccc(S(=O)(=O)N2CCCC(CN)C2)cc1-c1cnc2c(N)nc(C(F)(F)F)cn12 (stereo not drawn) [Example 513, 3-(5-((3-(Aminomethyl)piperidin-1-yl)sulfonyl)-2-methylphenyl)-6-(trifluoromethyl)imidazo[1,2-a]pyrazin-8-amine trifluoroacetate]
500 to 2000 nM | < 100 nM |  | 100 to 500 nM | Cc1nc(N)c2ncc(-c3cc(S(=O)(=O)NCC(C)(C)O)ccc3C)n2n1 [Example 273, 3-(4-amino-2-methylimidazo[1,2-f][1,2,4]triazin-7-yl)-N-(2-hydroxy-2-methylpropyl)-4-methylbenzenesulfonamide trifluoroacetate salt]
500 to 2000 nM | < 100 nM | 500 to 1000 nM |  | Cc1ccc(S(=O)(=O)N[C@H]2COC[C@@H]2O)cc1-c1cnc2c(N)ncnn12 [Example 123, 3-(4-aminoimidazo[2,1-f][1,2,4]triazin-7-yl)-N-[(3S,4R)-4-hydroxytetrahydrofuran-3-yl]-4-methylbenzenesulfonamide]
100 to 500 nM | < 100 nM |  | < 100 nM | Cc1ccc(S(=O)(=O)NC23CC(Cn4cccn4)(C2)C3)cc1-c1cnc2c(N)ncnn12 [Example 92, N-(3-((1H-pyrazol-1-yl)methyl)bicyclo[1.1.1]pentan-1-yl)-3-(4-aminoimidazo[1,2-f][1,2,4]triazin-7-yl)-4-methylbenzenesulfonamide trifluoroacetate salt]
100 to 500 nM | < 100 nM | 100 to 500 nM |  | Cc1cc(-c2cn3c(-c4cc(S(C)(=O)=O)ccc4C)cnc3c(N)n2)c(F)cn1 [Example 489, 6-(5-Fluoro-2-methylpyridin-4-yl)-3-(2-methyl-5-(methylsulfonyl)phenyl)imidazo[1,2-a]pyrazin-8-amine trifluoroacetate]
100 to 500 nM | < 100 nM |  | 100 to 500 nM | Cc1nc(N)c2ncc(-c3cc(S(=O)(=O)N[C@H]4CC[C@](C)(O)CC4)c(F)cc3C)n2n1 [Example 402, 5-(4-amino-2-methylimidazo[1,2-f][1,2,4]triazin-7-yl)-2-fluoro-N-((1r,4r)-4-hydroxy-4-methylcyclohexyl)-4-methylbenzenesulfonamide trifluoroacetate salt]
< 100 nM | < 100 nM | < 100 nM |  | Cc1ccc(S(=O)(=O)N[C@H]2CC[C@H](O)CC2)cc1-c1cnc2c(N)nc(Br)cn12 [Example 16, 3-(8-Amino-6-bromoimidazo[1,2-a]pyrazin-3-yl)-N-(trans-4-hydroxycyclohexyl)-4-methylbenzenesulfonamide]
100 to 500 nM | < 100 nM | 100 to 500 nM |  | Cc1ccc(S(=O)(=O)N2CCNC[C@@H]2CO)cc1-c1cnc2c(N)ncnn12 [Example 166, (R)-(1-((3-(4-aminoimidazo[2,1-f][1,2,4]triazin-7-yl)-4-methylphenyl)sulfonyl)piperazin-2-yl)methanol]
100 to 500 nM | < 100 nM |  | < 100 nM | Cc1ccc(S(=O)(=O)NC23CC(Cn4cccn4)(C2)C3)cc1-c1cnc2c(N)nc(C(F)(F)F)nn12 [Example 332, N-(3-((1H-pyrazol-1-yl)methyl)bicyclo[1.1.1]pentan-1-yl)-3-(4-amino-2-(trifluoromethyl)imidazo[1,2-f][1,2,4]triazin-7-yl)-4-methylbenzenesulfonamide trifluoroacetate salt]
100 to 500 nM | < 100 nM | 100 to 500 nM |  | Cc1ccc(S(=O)(=O)N[C@H]2CC[C@H](O)CC2)cc1-c1cnc2c(N)ncnn12 [Example 39, 3-(4-Aminoimidazo[2,1-f][1,2,4]triazin-7-yl)-N-(trans-4-hydroxycyclohexyl)-4-methylbenzenesulfonamide]
100 to 500 nM | < 100 nM |  | 100 to 500 nM | Cc1ccc(S(=O)(=O)NC23CC(CC#N)(C2)C3)cc1-c1cnc2c(N)ncnn12 [Example 91, trifluoroacetate salt]
< 100 nM | < 100 nM | > 1000 nM |  | Nc1nc(C(F)(F)F)cn2c(-c3ccc(Cl)c(S(=O)(=O)NC45CCC(CO)(C4)C5)c3)cnc12 [Example 399, 5-(8-Amino-6-(trifluoromethyl)imidazo[1,2-a]pyrazin-3-yl)-2-chloro-N-(4-(hydroxymethyl)bicyclo[2.1.1]hexan-1-yl)benzenesulfonamide trifluoroacetate salt]
100 to 500 nM | < 100 nM | 100 to 500 nM |  | Cc1ccc(S(=O)(=O)N(CCC#N)CCCO)cc1-c1cnc2c(N)ncnn12 [Example 175, 3-(4-aminoimidazo[2,1-f][1,2,4]triazin-7-yl)-N-(2-cyanoethyl)-N-(3-hydroxypropyl)-4-methylbenzenesulfonamide]
500 to 2000 nM | < 100 nM | 100 to 500 nM |  | Cc1ccc(S(=O)(=O)N2CCC3(CCOCC3)C2)cc1-c1cnc2c(N)ncnn12 [Example 142, 7-(5-((8-oxa-2-azaspiro[4.5]decan-2-yl)sulfonyl)-2-methylphenyl)imidazo[2,1-f][1,2,4]triazin-4-amine]
500 to 2000 nM | < 100 nM | > 1000 nM |  | Cc1ccc(S(=O)(=O)N2CC3C(O)C2CN3C2CCCC2C#N)cc1-c1cnc2c(N)nc(C(F)(F)F)nn12 (stereo not drawn) [Example 353, 2-(5-((3-(4-amino-2-(trifluoromethyl)imidazo[2,1-f][1,2,4]triazin-7-yl)-4-methylphenyl)sulfonyl)-7-hydroxy-2,5-diazabicyclo[2.2.1]heptan-2-yl)cyclopentane-1-carbonitrile]
100 to 500 nM | < 100 nM |  | < 100 nM | Cc1ccc(S(=O)(=O)N[C@H]2C[C@H](CO)C2)cc1-c1cnc2c(N)nc(C(F)(F)F)nn12 [Example 323, 3-(4-Amino-2-(trifluoromethyl)imidazo[1,2-f][1,2,4]triazin-7-yl)-N-((1r,3r)-3-(hydroxymethyl)cyclobutyl)-4-methylbenzenesulfonamide trifluoroacetate salt]

SMILES | IC50 [1] | IC50 [2] | IC50 ([3]; Homo sapiens) | IC50 [3]
COc1ncccc1-c1cn2c(-c3cc(S(C)(=O)=O)ccc3C)cnc2c(N)n1 [Example 477, 6-(2-Methoxypyridin-3-yl)-3-(2-methyl-5-(methylsulfonyl)phenyl)imidazo[1,2-a]pyrazin-8-amine trifluoroacetate] | 100 to 500 nM | < 100 nM |  | 100 to 500 nM
